{"source": "paper PMC6253949", "about": "“The Inhibitory Action of Kohamaic Acid A Derivatives on Mammalian DNA Polymerase β” (Molecules, 2008)", "format_in_all_cases": "biochemical", "key": {"[1]": {"biological_target": "Calf DNA polymerase α (Bos taurus, UniProt A0AAA9THK8)", "sequence (Q58D13 whole entry)": "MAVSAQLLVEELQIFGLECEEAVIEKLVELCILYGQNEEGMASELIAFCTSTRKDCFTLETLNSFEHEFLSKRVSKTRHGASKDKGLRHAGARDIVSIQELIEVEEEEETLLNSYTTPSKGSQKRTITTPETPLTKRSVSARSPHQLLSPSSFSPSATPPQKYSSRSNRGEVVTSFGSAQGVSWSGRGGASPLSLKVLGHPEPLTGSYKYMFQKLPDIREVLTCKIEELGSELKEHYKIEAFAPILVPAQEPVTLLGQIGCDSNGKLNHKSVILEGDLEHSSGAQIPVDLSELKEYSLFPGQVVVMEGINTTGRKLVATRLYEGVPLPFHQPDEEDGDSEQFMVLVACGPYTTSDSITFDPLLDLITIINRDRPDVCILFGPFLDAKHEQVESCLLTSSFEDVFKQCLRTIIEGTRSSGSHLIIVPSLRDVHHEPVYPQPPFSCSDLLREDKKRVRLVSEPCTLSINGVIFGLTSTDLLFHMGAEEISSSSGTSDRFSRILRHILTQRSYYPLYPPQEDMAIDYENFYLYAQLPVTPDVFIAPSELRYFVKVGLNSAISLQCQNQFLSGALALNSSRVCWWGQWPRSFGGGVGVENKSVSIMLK", "sequence (A0AAA9THK8 entry or part of it)": "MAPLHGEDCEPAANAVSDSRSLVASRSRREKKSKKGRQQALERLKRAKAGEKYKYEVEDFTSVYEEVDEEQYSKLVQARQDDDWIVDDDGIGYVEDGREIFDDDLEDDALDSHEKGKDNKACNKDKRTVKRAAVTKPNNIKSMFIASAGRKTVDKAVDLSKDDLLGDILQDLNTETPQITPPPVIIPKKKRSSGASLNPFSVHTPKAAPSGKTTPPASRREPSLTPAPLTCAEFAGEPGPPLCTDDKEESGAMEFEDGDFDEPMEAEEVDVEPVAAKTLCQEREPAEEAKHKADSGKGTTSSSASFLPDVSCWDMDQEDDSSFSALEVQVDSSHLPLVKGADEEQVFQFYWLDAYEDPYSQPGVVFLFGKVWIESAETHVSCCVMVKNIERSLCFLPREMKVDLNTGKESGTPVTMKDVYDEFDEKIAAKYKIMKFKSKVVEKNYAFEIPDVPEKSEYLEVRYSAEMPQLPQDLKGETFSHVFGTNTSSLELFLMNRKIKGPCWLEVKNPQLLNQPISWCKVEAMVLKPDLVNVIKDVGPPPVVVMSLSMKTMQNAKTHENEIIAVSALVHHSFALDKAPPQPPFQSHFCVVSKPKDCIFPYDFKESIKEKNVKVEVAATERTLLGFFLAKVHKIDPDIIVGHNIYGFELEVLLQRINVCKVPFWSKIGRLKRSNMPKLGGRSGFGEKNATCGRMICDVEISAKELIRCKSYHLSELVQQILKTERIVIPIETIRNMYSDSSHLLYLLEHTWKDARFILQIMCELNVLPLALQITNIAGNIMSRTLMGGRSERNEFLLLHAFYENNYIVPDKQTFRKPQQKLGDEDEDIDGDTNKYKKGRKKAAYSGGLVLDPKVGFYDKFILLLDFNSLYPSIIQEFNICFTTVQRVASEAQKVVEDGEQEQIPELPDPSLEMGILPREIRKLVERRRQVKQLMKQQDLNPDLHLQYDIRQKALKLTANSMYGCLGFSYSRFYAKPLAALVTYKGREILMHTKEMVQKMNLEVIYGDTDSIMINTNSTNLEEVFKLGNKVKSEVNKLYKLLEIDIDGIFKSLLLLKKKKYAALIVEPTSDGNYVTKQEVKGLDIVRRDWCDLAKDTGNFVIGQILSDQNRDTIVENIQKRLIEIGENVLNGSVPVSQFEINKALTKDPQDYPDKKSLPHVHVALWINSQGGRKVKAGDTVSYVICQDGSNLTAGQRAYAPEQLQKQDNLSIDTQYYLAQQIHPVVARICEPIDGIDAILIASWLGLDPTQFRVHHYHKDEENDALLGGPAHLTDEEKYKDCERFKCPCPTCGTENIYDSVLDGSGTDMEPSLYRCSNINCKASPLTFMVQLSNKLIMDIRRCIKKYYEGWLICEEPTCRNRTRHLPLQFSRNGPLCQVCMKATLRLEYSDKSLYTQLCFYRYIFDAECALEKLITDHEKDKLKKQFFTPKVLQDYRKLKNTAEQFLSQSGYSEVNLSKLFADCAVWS", "sequence (A0JNF4 entry or part of it, further chain)": "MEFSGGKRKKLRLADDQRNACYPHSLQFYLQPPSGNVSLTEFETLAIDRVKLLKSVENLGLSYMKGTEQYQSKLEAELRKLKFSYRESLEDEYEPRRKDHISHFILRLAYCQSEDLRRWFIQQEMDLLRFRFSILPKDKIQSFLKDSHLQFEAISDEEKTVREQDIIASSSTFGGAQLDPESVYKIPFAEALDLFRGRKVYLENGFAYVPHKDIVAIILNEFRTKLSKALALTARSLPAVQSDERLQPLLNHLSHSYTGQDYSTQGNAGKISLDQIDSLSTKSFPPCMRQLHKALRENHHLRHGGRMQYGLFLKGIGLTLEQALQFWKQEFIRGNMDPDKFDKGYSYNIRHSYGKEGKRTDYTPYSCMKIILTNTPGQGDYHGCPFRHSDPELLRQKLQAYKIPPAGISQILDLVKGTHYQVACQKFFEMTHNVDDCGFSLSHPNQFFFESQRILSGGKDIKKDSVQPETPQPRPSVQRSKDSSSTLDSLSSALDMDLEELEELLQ", "sequence (A0A3Q1MF00 entry or part of it, further chain)": "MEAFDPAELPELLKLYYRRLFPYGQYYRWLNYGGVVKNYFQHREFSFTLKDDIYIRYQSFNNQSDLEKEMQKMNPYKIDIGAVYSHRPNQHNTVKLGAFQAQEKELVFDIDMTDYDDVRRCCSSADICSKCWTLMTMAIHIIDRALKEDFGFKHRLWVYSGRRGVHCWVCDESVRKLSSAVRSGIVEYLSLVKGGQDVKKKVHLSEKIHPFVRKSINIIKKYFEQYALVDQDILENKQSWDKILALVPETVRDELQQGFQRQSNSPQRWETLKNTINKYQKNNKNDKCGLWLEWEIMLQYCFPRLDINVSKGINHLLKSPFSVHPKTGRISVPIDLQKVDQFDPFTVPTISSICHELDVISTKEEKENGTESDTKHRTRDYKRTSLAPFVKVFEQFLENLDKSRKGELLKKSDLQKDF", "assay": "DNA polymerase assay, calf pol α", "source_text": "Pol α was purified from calf thymus by immuno-affinity column chromatography as described by Tamai et al.. Recombinant rat pol β was purified from E. coli JMpβ5 as described by Date et al.. The human pol γ catalytic gene was cloned into pFastBac. Histidine-tagged enzyme was expressed using the BAC-TO-BAC HT Baculovirus Expression System according to the supplier's manual (LIFE TECHNOLOGIES, MD, USA) and purified using ProBoundresin (Invitrogen Japan, Tokyo, Japan). Human pols δ and ε were purified by the nuclear fractionation of human peripheral blood cancer cells (Molt-4) using the second subunit of pols δ and ε-conjugated affinity column chromatography, respectively. Recombinant human pols η and ι tagged with His6 at their C-terminal were expressed in SF9 insect cells using the baculovirus expression system, and were purified as described previously. A truncated form of pol κ (i.e., hDINB1DC) with 6 x His-tags attached at the C-terminal was overproduced using the BAC-to-BAC Baculovirus Expression System kit (GIBCO BRL, MD, USA) and purified as described previously. Recombinant human His-pol λ was overexpressed and purified according to a method described previously. Fish pol δ was purified from the testis of cherry salmon (Oncorhynchus masou). Pol I (α-like) from a higher plant, cauliflower inflorescence, was purified according to the methods outlined by Sakaguchi et al.. The Klenow fragment of pol I from E. coli was purchased from Worthington Biochemical Corp. (Freehold, NJ, USA). Taq pol, T4 pol, T7 RNA polymerase and T4 polynucleotide kinase were purchased from Takara (Kyoto, Japan). Bovine pancreas deoxyribonuclease I (DNase I) was obtained from Stratagene Cloning Systems (La Jolla, CA, USA).\nThe reaction mixtures for pol α, pol β, fish pol δ, plant pol I (α-like) and prokaryotic pols were described previously, and those for pol γ, and pols δ and ε were as described by Umeda et al. and Ogawa et al., respectively. The reaction mixtures for pols η, ι and κ were the same as for pol α, and the reaction mixture for pol λ was the same as that for pol β.\nFor pols, poly(dA)/oligo(dT)12-18 (A/T = 2/1) and dTTP were used as the DNA template-primer and nucleotide (i.e., dNTP) substrate, respectively. KA-A analogues (i.e., compounds 1–12) were dissolved in distilled dimethyl sulfoxide (DMSO) at various concentrations and sonicated for 30 sec. Aliquots of 4 μL of sonicated samples were mixed with 16 μL of each enzyme (final amount 0.05 units) in 50 mM Tris-HCl (pH 7.5) containing 1 mM dithiothreitol, 50% glycerol and 0.1 mM EDTA, and kept at 0 °C for 10 min. […] Activity without the inhibitor was considered 100%, and the remaining activity at each concentration of the inhibitor was determined relative to this value. […]"}, "[2]": {"biological_target": "T1, Human DNA polymerase δ (Homo sapiens, UniProt P28340)", "T1 construct": "Human pols δ and ε were purified by the nuclear fractionation of human peripheral blood cancer cells (Molt-4); endogenous in cells; host or cells: Molt-4", "T1 sequence (P28340 1-1107)": "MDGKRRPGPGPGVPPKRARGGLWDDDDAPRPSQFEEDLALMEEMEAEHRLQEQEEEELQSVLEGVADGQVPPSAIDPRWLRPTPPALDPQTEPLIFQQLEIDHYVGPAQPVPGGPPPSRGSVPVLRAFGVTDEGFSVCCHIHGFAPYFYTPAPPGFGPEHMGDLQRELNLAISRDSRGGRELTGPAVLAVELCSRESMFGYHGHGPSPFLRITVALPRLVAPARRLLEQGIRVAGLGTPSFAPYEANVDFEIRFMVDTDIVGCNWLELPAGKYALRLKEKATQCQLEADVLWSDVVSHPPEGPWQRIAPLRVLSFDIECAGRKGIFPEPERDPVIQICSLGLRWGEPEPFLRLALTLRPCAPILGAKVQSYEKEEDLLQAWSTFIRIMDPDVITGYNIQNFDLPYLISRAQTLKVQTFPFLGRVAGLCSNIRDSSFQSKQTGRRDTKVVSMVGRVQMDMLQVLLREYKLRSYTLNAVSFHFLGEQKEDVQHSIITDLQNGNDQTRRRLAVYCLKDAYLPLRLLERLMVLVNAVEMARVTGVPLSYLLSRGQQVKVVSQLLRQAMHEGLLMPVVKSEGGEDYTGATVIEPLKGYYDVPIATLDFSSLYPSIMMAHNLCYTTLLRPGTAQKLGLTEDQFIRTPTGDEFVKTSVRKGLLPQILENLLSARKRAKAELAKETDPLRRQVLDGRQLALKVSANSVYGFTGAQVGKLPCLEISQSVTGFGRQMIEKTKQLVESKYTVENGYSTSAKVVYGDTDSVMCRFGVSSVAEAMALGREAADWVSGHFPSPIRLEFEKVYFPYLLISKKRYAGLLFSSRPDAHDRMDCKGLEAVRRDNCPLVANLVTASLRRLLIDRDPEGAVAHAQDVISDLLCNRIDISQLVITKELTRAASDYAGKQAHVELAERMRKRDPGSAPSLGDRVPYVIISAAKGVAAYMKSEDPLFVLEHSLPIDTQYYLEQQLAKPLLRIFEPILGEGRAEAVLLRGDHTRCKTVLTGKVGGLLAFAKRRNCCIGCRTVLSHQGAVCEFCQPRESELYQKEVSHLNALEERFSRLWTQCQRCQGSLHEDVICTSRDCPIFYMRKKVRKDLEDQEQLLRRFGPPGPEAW", "assay": "DNA polymerase assay, human pol δ", "source_text": "(§1) Pol α was purified from calf thymus by immuno-affinity column chromatography as described by Tamai et al.. Recombinant rat pol β was purified from E. coli JMpβ5 as described by Date et al.. The human pol γ catalytic gene was cloned into pFastBac. Histidine-tagged enzyme was expressed using the BAC-TO-BAC HT Baculovirus Expression System according to the supplier's manual (LIFE TECHNOLOGIES, MD, USA) and purified using ProBoundresin (Invitrogen Japan, Tokyo, Japan). Human pols δ and ε were purified by the nuclear fractionation of human peripheral blood cancer cells (Molt-4) using the second subunit of pols δ and ε-conjugated affinity column chromatography, respectively. Recombinant human pols η and ι tagged with His6 at their C-terminal were expressed in SF9 insect cells using the baculovirus expression system, and were purified as described previously. A truncated form of pol κ (i.e., hDINB1DC) with 6 x His-tags attached at the C-terminal was overproduced using the BAC-to-BAC Baculovirus Expression System kit (GIBCO BRL, MD, USA) and purified as described previously. […]\n(§2) For pols, poly(dA)/oligo(dT)12-18 (A/T = 2/1) and dTTP were used as the DNA template-primer and nucleotide (i.e., dNTP) substrate, respectively. […] Activity without the inhibitor was considered 100%, and the remaining activity at each concentration of the inhibitor was determined relative to this value. […]"}, "[3]": {"biological_target": "T2, Human DNA polymerase ε (Homo sapiens, UniProt Q07864)", "T2 construct": "Human pols δ and ε were purified by the nuclear fractionation of human peripheral blood cancer cells (Molt-4); endogenous in cells; host or cells: Molt-4", "assay": "DNA polymerase assay, human pol ε", "source_text": "as §1, §2"}}}
{"compound": "CC1=CC[C@H]2C(C)(C)CCC[C@]2(C)[C@H]1CCCCCCCCCCCCCCCCC(=O)O", "note": "(relative stereo) [compound 11, (1S*,4aS*,8aS*)-17-(1,4,4a,5,6,7,8,8a-octahydro-2,5,5,8a-tetramethylnaphthalen-1-yl)heptadecanoic acid]", "values": [{"measurement": "Inhibitory effect on pol α compared with KA-A", "setting": "[1]; 10 and 100 μM of compound (Figure 2A)", "result": "strongest inhibitory effect"}, {"measurement": "IC50", "setting": "[1]; poly(dA)/oligo(dT)12-18 and dTTP, 0.05 units enzyme, read-out: IC50 values", "result": "4.21 ± 0.21", "unit": "µM"}, {"measurement": "IC50", "setting": "[2]", "result": "4.89 ± 0.24", "unit": "µM"}, {"measurement": "IC50", "setting": "[3]", "result": "3.22 ± 0.16", "unit": "µM"}]}
